The source of these data is patent US20240174634A1, “Aldehyde Dehydrogenase Inhibitors and Their Therapeutic Use” (priority 2020, published 2024).

SMILES strings stand for the structures. pIC50: −log10 of the molar value.

The test deals with T1, ALDH1A3 (Homo sapiens, UniProt P47895).
T1 sequence (P47895 1-512): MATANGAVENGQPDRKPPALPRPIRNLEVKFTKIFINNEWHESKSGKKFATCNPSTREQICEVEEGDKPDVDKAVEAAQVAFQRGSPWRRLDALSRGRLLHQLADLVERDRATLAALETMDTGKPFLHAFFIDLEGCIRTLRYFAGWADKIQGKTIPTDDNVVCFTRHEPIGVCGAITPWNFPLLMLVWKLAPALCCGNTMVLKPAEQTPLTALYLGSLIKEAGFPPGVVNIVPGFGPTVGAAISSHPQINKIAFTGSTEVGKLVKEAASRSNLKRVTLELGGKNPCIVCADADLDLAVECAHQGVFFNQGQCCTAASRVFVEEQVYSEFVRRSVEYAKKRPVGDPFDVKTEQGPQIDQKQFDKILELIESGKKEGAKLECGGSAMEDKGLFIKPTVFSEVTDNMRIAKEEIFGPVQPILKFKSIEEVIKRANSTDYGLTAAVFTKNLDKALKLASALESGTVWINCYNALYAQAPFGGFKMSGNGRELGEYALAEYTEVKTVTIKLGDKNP
Briefly: ALDH1A3 cellular assay (ALDEFLUOR) in WM266.4 melanoma cells. In kind it is cell-based. The following applies: WM266.4 cells; 60 min incubation; percentage of ALDH-positive cells. From the text:
Materials: WM266.4 cells were procured from ATCC. (WM266-4 is a metastatic human melanoma cell line.) The ALDEFLUOR™ Assay kit (cat. no. 01700) and Aldefluor buffer (cat. no. 01702) were procured from StemCell Technologies. Dulbecco's Modified Eagle Medium (DMEM), FluoroBrite DMEM, Glutamax and Hoechst 33342 were purchased from ThermoFisher. Verapamil was obtained from Fluorochem. FBS was obtained from Sigma. Echo Qualified 384-well low-dead-volume microplate and Echo Qualified 384-well polypropylene microplate were purchased from Labcyte, and the Microclear black sterile polystyrene microplate from Greiner Bio-One.
Method: Intracellular inhibition of ALDH1A3 was assessed using the ALDEFLUOR™ Assay kit. The activated ALDEFLUOR™ reagent, BODIPY-aminoacetaldehyde (BAAA), is a fluorescent non-toxic substrate for ALDH enzymes, which freely diffuses into intact and viable cells. In the presence of ALDH enzyme activity, BAAA is converted into BODIPY-aminoacetate (BAA), which is retained inside the cells. The amount of fluorescent reaction product is proportional to the ALDH activity in the cells and is measured using an imaging cytometer. Active efflux of the reaction product is inhibited by an efflux inhibitor (Verapamil) in the ALDEFLUOR™ Assay Buffer.
A frozen vial of cells was recovered into a T225 flask containing DMEM, high glucose, 10% FBS, 1% glutamax, 1% HEPES. The following day, media was changed and cells were ready for assay from 72 hours after recovery. Cells were transferred into FluoroBrite DMEM (plus 10% FBS, 1% glutamax and 1% HEPES) and diluted to 2.5×10^5 cells/mL. 30 μL of cells were added to each well to give 7500 cells/well and then incubated overnight at 37° C., 5% CO2. After overnight incubation, the media was aspirated and replaced by 20 μL substrate/Hoechst buffer solution. Each plate requires 9 mL of solution comprising, 9 mL ALDEFLUOR assay buffer, 18 μL BAAA substrate (final concentration 500 nM), 4.5 μL Hoechst 33342 (final concentration 5 μg/mL) and 4.5 μL Verapamil (final concentration 50 μM). Compounds were prepared for dosing using the Echo acoustic dispenser by aliquoting into a source plate and dosed directly onto the cell assay plate to give a 10 point dose response per compound ranging from 10 μM to 0.0005 μM final concentration in 3-fold dilution steps. Plates were then incubated for 60 minutes at 37° C., 5% CO2. The buffer was then aspirated and cells washed twice in ice-cold PBS. Plates were kept on ice and 30 μL of cold Aldefluor buffer with 50 μM verapamil dispensed per well. The plates were then imaged using the CellInsight fluorescent microscope. Hoechst fluorescence in the 405 nm channel indicated the nuclear area and this was used to define nuclei and then the surrounding cellular area. Fluorescence in the 488 nm channel of the defined cellular area indicates ALDH1A3 activity. The percentage of cells positive for ALDH activity was plotted versus compound concentration to generate EC50 values using curve fitting parameters defined in Dotmatics software.
Broadly, the pIC50 is the negative decadic logarithm of the IC50, by convention in mol/L. A high value points to a low IC50. In turn, `CCn1cc(C2CCCN2CCOc2ccc3c(c2)CCC(=O)N3)cn1` (stereo not shown) [ALDHI-2016, 6-[2-[2-(1-ethylpyrazol-4-yl)pyrrolidin-1-yl]ethoxy]-3,4-dihydro-1H-quinolin-2-one] gave a negative logarithm of the IC50 (pIC50) of 5.00 to 6.00.
As to `O=C1CCc2cc(OCCN3CCC[C@H]3c3cccc(F)c3)ccc2N1` [ALDHI-2018, 6-[2-[(2S)-2-(3-fluorophenyl)pyrrolidin-1-yl]ethoxy]-3,4-dihydro-1H-quinolin-2-one], the pIC50 was above 7.00.
For `O=C1CCc2cc(OCCN3CCCC3c3ccccc3)ccc2N1` (stereo not shown) [ALDHI-2019, 6-[2-(2-phenylpyrrolidin-1-yl)ethoxy]-3,4-dihydro-1H-quinolin-2-one], the negative logarithm of the IC50 (pIC50) was 6.00 to 7.00.
In turn, `O=C1CCCc2cc(OCCN3CCCC3c3cccc(F)c3)ccc2N1` (stereo not shown) [ALDHI-2020, 7-[2-[2-(3-fluorophenyl)pyrrolidin-1-yl]ethoxy]-1,3,4,5-tetrahydro-1-benzazepin-2-one] gave a pIC50 of 6.00 to 7.00.
The figure for `O=C1CCc2cc(OCCN3CCC3c3cccc(F)c3)ccc2N1` (stereo not shown) [ALDHI-2021, 6-[2-[2-(3-fluorophenyl)azetidin-1-yl]ethoxy]-3,4-dihydro-1H-quinolin-2-one] is 5.00 to 6.00; for `O=c1ccc2cc(OCCN3CCCC3c3cccc(F)c3)ccc2[nH]1` (stereo not shown) [ALDHI-2022, 6-[2-[2-(3-fluorophenyl)pyrrolidin-1-yl]ethoxy]-1H-quinolin-2-one] it is 6.00 to 7.00; for `O=C1CCc2cc(OCCn3nccc3-c3cccc(F)c3)ccc2N1` [ALDHI-2023, 6-[2-[5-(3-fluorophenyl)pyrazol-1-yl]ethoxy]-3,4-dihydro-1H-quinolin-2-one] it is above 7.00.
Under `Cn1cc(C2CCCN2CCOc2ccc3c(c2)SCC(=O)N3)cn1` (stereo not shown) [ALDHI-2026, 7-[2-[2-(1-methylpyrazol-4-yl)pyrrolidin-1-yl]ethoxy]-4H-1,4-benzothiazin-3-one] stands 5.00 to 6.00.
As for `O=C1CSc2cc(OCCN3CCCC3c3ccccn3)ccc2N1` (stereo not shown) [ALDHI-2027, 7-[2-[2-(2-pyridyl)pyrrolidin-1-yl]ethoxy]-4H-1,4-benzothiazin-3-one], the pIC50 was 5.00 to 6.00.
For `O=C1CSc2cc(OCCN3CCCC3c3cccnc3)ccc2N1` (stereo not shown) [ALDHI-2028, 7-[2-[2-(3-pyridyl)pyrrolidin-1-yl]ethoxy]-4H-1,4-benzothiazin-3-one], the pIC50 is 6.00 to 7.00.
Under `O=C1CSc2cc(OCCN3CCCC3c3ccncc3)ccc2N1` (stereo not shown) [ALDHI-2029, 7-[2-[2-(4-pyridyl)pyrrolidin-1-yl]ethoxy]-4H-1,4-benzothiazin-3-one] stands 6.00 to 7.00; under `Cc1ccc(C2CCCN2CCOc2ccc3c(c2)CCC(=O)N3)cn1` (stereo not shown) [ALDHI-2030, 6-[2-[2-(6-methyl-3-pyridyl)pyrrolidin-1-yl]ethoxy]-3,4-dihydro-1H-quinolin-2-one], 6.00 to 7.00; under `O=C1CCc2cc(OCCN3CCOCC3c3cccc(F)c3)ccc2N1` (stereo not shown) [ALDHI-2031, 6-[2-[3-(3-fluorophenyl)morpholin-4-yl]ethoxy]-3,4-dihydro-1H-quinolin-2-one], above 7.00.
On to `O=C1CCc2cc(OCCN3CCCC3c3cc(F)cc(F)c3)ccc2N1` (stereo not shown) [ALDHI-2032, 6-[2-[2-(3,5-difluorophenyl)pyrrolidin-1-yl]ethoxy]-3,4-dihydro-1H-quinolin-2-one], for which the negative-log IC50 (pIC50) is above 7.00.
`Cc1nc(C2CCCN2CCOc2ccc3c(c2)CCC(=O)N3)cs1` (stereo not shown) [ALDHI-2033, 6-[2-[2-(2-methylthiazol-4-yl)pyrrolidin-1-yl]ethoxy]-3,4-dihydro-1H-quinolin-2-one] showed a pIC50 of 5.00 to 6.00.
Take `COc1cccc(C2CCCN2CCOc2ccc3c(c2)CCC(=O)N3)c1` (stereo not shown) [ALDHI-2034, 6-[2-[2-(3-methoxyphenyl)pyrrolidin-1-yl]ethoxy]-3,4-dihydro-1H-quinolin-2-one]: the negative-log IC50 (pIC50) is 5.00 to 6.00.
`CC1(c2cccc(F)c2)CCCN1CCOc1ccc2c(c1)CCC(=O)N2` (stereo not shown) [ALDHI-2037, 6-[2-[2-(3-fluorophenyl)-2-methyl-pyrrolidin-1-yl]ethoxy]-3,4-dihydro-1H-quinolin-2-one]: the pIC50 is above 7.00.
Consider `O=C1CCc2cc(OCCN3CCCCC3c3cccc(F)c3)ccc2N1` (stereo not shown) [ALDHI-2038, 6-[2-[2-(3-fluorophenyl)-1-piperidyl]ethoxy]-3,4-dihydro-1H-quinolin-2-one], for which the pIC50 is 5.00 to 6.00.
Regarding `O=C1CCc2cc(OCCN3CCCC3c3ccc(F)c(F)c3)ccc2N1` (stereo not shown) [ALDHI-2039, 6-[2-[2-(3,4-difluorophenyl)pyrrolidin-1-yl]ethoxy]-3,4-dihydro-1H-quinolin-2-one], the pIC50 is 6.00 to 7.00.
Molecule `CC1(c2ccccc2)COCCN1CCOc1ccc2c(c1)CCC(=O)N2` (stereo not shown) [ALDHI-2040, 6-[2-(3-methyl-3-phenyl-morpholin-4-yl)ethoxy]-3,4-dihydro-1H-quinolin-2-one] gave a negative logarithm of the IC50 (pIC50) of 6.00 to 7.00.
`O=C1CCc2cc(OCCn3ccnc3-c3ccccc3)ccc2N1` [ALDHI-2041, 6-[2-(2-phenylimidazol-1-yl)ethoxy]-3,4-dihydro-1H-quinolin-2-one] gave a pIC50 of 5.00 to 6.00.
Take `CC1(C)Oc2cc(OCCN3CCCC3c3cccc(F)c3)ccc2NC1=O` (stereo not shown) [ALDHI-2043, 7-[2-[2-(3-fluorophenyl)pyrrolidin-1-yl]ethoxy]-2,2-dimethyl-4H-1,4-benzoxazin-3-one]: the negative logarithm of the IC50 (pIC50) was 6.00 to 7.00.
`CC1Oc2cc(OCCN3CCCC3c3cccc(F)c3)ccc2NC1=O` (stereo not shown) [ALDHI-2044, 7-[2-[2-(3-fluorophenyl)pyrrolidin-1-yl]ethoxy]-2-methyl-4H-1,4-benzoxazin-3-one] showed a pIC50 of 6.00 to 7.00.
In turn, `CCC1Oc2cc(OCCN3CCCC3c3cccc(F)c3)ccc2NC1=O` (stereo not shown) [ALDHI-2045, 2-ethyl-7-[2-[2-(3-fluorophenyl)pyrrolidin-1-yl]ethoxy]-4H-1,4-benzoxazin-3-one] gave a pIC50 above 7.00.
Take `CC1Cc2cc(OCCN3CCCC3c3cccc(F)c3)ccc2NC1=O` (stereo not shown) [ALDHI-2048, 6-[2-[2-(3-fluorophenyl)pyrrolidin-1-yl]ethoxy]-3-methyl-3,4-dihydro-1H-quinolin-2-one]: the pIC50 is above 7.00.
`O=C1CCc2cc(OCCN3CCCC3c3cccc(F)c3)c(F)cc2N1` (stereo not shown) [ALDHI-2050, 7-fluoro-6-[2-[2-(3-fluorophenyl)pyrrolidin-1-yl]ethoxy]-3,4-dihydro-1H-quinolin-2-one] showed a pIC50 of 6.00 to 7.00.
The figure for `O=C1CCc2cc(OCCN3C(=O)CCC3c3ccccc3)ccc2N1` (stereo not shown) [ALDHI-2051, 6-[2-(2-oxo-5-phenyl-pyrrolidin-1-yl)ethoxy]-3,4-dihydro-1H-quinolin-2-one] is above 7.00.
Under `O=C1CCc2cc(OCCN3CC(F)CC3c3cccc(F)c3)ccc2N1` (stereo not shown) [ALDHI-2052, 6-[2-[4-fluoro-2-(3-fluorophenyl)pyrrolidin-1-yl]ethoxy]-3,4-dihydro-1H-quinolin-2-one] stands above 7.00; under `O=C1CCc2cc(OCCN3CC(F)(F)CC3c3cccc(F)c3)ccc2N1` (stereo not shown) [ALDHI-2053, 6-[2-[4,4-difluoro-2-(3-fluorophenyl)pyrrolidin-1-yl]ethoxy]-3,4-dihydro-1H-quinolin-2-one], above 7.00.
The molecule `CN(CCOc1ccc2c(c1)CCC(=O)N2)Cc1cccc(F)c1` [ALDHI-3001, 6-[2-[(3-fluorophenyl)methyl-methyl-amino]ethoxy]-3,4-dihydro-1H-quinolin-2-one] gave a pIC50 of 6.00 to 7.00.
The figure for `O=C1CCc2cc(OCCN(CCO)Cc3cccc(F)c3)ccc2N1` [ALDHI-3002, 6-[2-[(3-fluorophenyl)methyl-(2-hydroxyethyl)amino]ethoxy]-3,4-dihydro-1H-quinolin-2-one] is above 7.00.
